Results as given in ChEMBL document CHEMBL3507680, “University of Dundee, Gates Library screen for HepG2 cell viability”.

Assay: Human HepG2 cell viability assay in 384 well format
Assay type: toxicity, cell-based
Design: dose 125 nL, time 70.5 hour; concentration not given beside the values
Details: HepG2 cells, read-out: Inhibition

CS(=O)(=O)NC1CCCN(C(=O)Nc2cccnc2)C1 (stereo not given)
cytotoxicity at 70.5 h: 25.1%

CS(=O)(=O)NC1CCCN(C(=O)c2cccnc2)C1 (stereo not given)
cytotoxicity at 70.5 h: -8.57%

CC(C)C(CNC(=O)Nc1cn[nH]c1)N1CCOCC1 (stereo not given)
cytotoxicity at 70.5 h: -5.6%

CCc1nnc(C2Cc3ccccc3CN2Cc2nc(C)no2)o1 (stereo not given)
cytotoxicity at 70.5 h: -3.78%

CCn1cnnc1CNC(=O)N1CCCCCC1
cytotoxicity at 70.5 h: -2.16%

CN(C(=O)c1ccc(Cl)cc1)C1CCN(c2ccccn2)CC1
cytotoxicity at 70.5 h: 2.33%

Cc1nc(C)n(CC2CCCN(CCC(=O)N3CCOCC3)C2)n1 (stereo not given)
cytotoxicity at 70.5 h: -4.61%

CC1CN(C(=O)CN(Cc2ccccc2Cl)C2CCCC2)CCO1 (stereo not given)
cytotoxicity at 70.5 h: 6.53%

CC(=O)N(Cc1noc(C)n1)C1CCN(Cc2cnc(C)s2)C1 (stereo not given)
cytotoxicity at 70.5 h: -4.39%

Cc1ccc(C(=O)N2CCCN(Cc3cscn3)CC2)o1
cytotoxicity at 70.5 h: -6.95%

CC(C)c1nn(C)c(N(C)C)c1CNCC(O)c1cccc(F)c1 (stereo not given)
cytotoxicity at 70.5 h: -10%

Cc1nn(C)c(N2CCOCC2)c1CNCc1ccoc1C
cytotoxicity at 70.5 h: -11.3%

CC(C)COC(C)C(=O)NCc1ccc(F)cc1 (stereo not given)
cytotoxicity at 70.5 h: -19.1%

O=C(NCCC(=O)N1CCCc2ccccc21)c1c(F)cccc1F
cytotoxicity at 70.5 h: -12.4%

CC(C)COC(C)C(=O)NCc1ccccc1 (stereo not given)
cytotoxicity at 70.5 h: -5.1%

CCc1nc(CN2CCCC(NCc3nnc(C4CC4)n3C)C2)no1 (stereo not given)
cytotoxicity at 70.5 h: -8.85%

CN(C)c1cc(CNC(=O)c2cnccn2)ccn1
cytotoxicity at 70.5 h: -8.01%

CCn1c(C)nnc1CN(C)C1CCN(CCCOC)C1 (stereo not given)
cytotoxicity at 70.5 h: 3.25%

COc1ccnc(N2CCN(C(=O)Cc3ccc(C)s3)CC2)n1
cytotoxicity at 70.5 h: -5.58%

CN(C)c1cc(CNC(=O)c2cn(-c3ccc(F)cc3)nn2)ccn1
cytotoxicity at 70.5 h: -8.15%

CN(C(=O)c1ccccc1Cl)C1CCN(c2ccccn2)CC1
cytotoxicity at 70.5 h: -3.26%

CN(C(=O)c1cccc2[nH]ncc12)C1CCN(c2ccccn2)CC1
cytotoxicity at 70.5 h: 31.6%

COc1ccnc(N2CCN(C(=O)NCc3ccc(C)s3)CC2)n1
cytotoxicity at 70.5 h: 1.2%

Cc1ccsc1CNC(=O)Cc1c(C)nc2c(c1C)c(=O)[nH]n2C
cytotoxicity at 70.5 h: -12.2%

Cc1cn2c(n1)CCC(NC(=O)c1nc(C)ncc1Cl)C2 (stereo not given)
cytotoxicity at 70.5 h: -8.31%

O=C(Cn1cccn1)NCC1(c2ccccc2)CC1
cytotoxicity at 70.5 h: 24.2%

CC1CN(C(=O)CN(Cc2ccco2)C2CC2)CCO1 (stereo not given)
cytotoxicity at 70.5 h: -10.6%

CC(C)COC(C)C(=O)NCc1cc(F)cc(F)c1 (stereo not given)
cytotoxicity at 70.5 h: -13.3%

Cc1noc(C)c1CNCC1CCCN1c1cccnn1 (stereo not given)
cytotoxicity at 70.5 h: 22.6%

O=C(CNCCn1cccn1)NCC1(c2ccccc2)CC1
cytotoxicity at 70.5 h: -4.79%

Cc1cccc(C(=O)NCc2ccnc(N(C)C)c2)n1
cytotoxicity at 70.5 h: 0.0987%

Cc1nc(C)n(CC2CCCN(CCNC(=O)OC(C)(C)C)C2)n1 (stereo not given)
cytotoxicity at 70.5 h: -0.801%

CCc1ccc(C(=O)N2CCCC(c3noc(CC)n3)C2)o1 (stereo not given)
cytotoxicity at 70.5 h: -2.81%

CCc1nc(CN2CCCC(NCc3cc(C)no3)C2)no1 (stereo not given)
cytotoxicity at 70.5 h: -8.45%

Cc1noc(CN2Cc3ccccc3CC2c2nnc(C)o2)n1 (stereo not given)
cytotoxicity at 70.5 h: 4.3%

CC1CCN(C(=O)CN(Cc2ccco2)C2CC2)CC1
cytotoxicity at 70.5 h: -9.01%

CCc1n[nH]c(C2CN(Cc3nnc(C4CC4)n3C)CCO2)n1 (stereo not given)
cytotoxicity at 70.5 h: 27.9%

Cc1nc2ccccc2nc1CN1CCCC1Cn1cncn1 (stereo not given)
cytotoxicity at 70.5 h: 19.7%

CCn1cc(CN2CCCN(C(=O)c3ccn(C)c(=O)c3)CC2)cn1
cytotoxicity at 70.5 h: 20.6%

Cc1nc(CN2CCCN(CC(=O)Nc3cccnc3)CC2)no1
cytotoxicity at 70.5 h: 7.78%

Cc1nc(C)n(C2CCCN(C(=O)c3ccccc3C)C2)n1 (stereo not given)
cytotoxicity at 70.5 h: -7.9%

CNC(=O)c1ccc(CN2CCC(N(C)Cc3noc(C)n3)C2)cc1 (stereo not given)
cytotoxicity at 70.5 h: -0.459%

O=C(COCc1ccccc1Cl)N1CCCC(n2cccn2)C1 (stereo not given)
cytotoxicity at 70.5 h: 3.17%

Cn1ncc2c1CCCC2NCc1ccc(Cl)s1 (stereo not given)
cytotoxicity at 70.5 h: 4.18%

Cc1ccc(OCCCNC(=O)NC(C)c2nncn2C)cc1 (stereo not given)
cytotoxicity at 70.5 h: -3.66%

CNc1cc2c(nn1)CCN(C(=O)c1ccoc1)C2
cytotoxicity at 70.5 h: -6.62%

O=C(c1ccc(Cl)o1)N1CCCN(Cc2cscn2)CC1
cytotoxicity at 70.5 h: -5.01%

Cc1cc(C)n(C2CCCN(C(=O)c3ccc(NC4CC4)nc3)C2)n1 (stereo not given)
cytotoxicity at 70.5 h: -0.521%

CC(C)c1nnc2n1CCN(C(=O)c1ccc(OCC(N)=O)cc1)C2
cytotoxicity at 70.5 h: -4.33%

OCC1CCCN1c1cc(N2CCN(c3ccccn3)CC2)ncn1 (stereo not given)
cytotoxicity at 70.5 h: -9.58%

Cc1nc(CN(C)C2CCN(Cc3ccc4c(c3)OCCO4)C2)no1 (stereo not given)
cytotoxicity at 70.5 h: -2.2%

Cn1c(CN2CCOC(c3nc(C(C)(C)C)n[nH]3)C2)nnc1C1CC1 (stereo not given)
cytotoxicity at 70.5 h: 26.5%

Cc1cc(NC(=O)CN2CCOC(Cn3cccn3)C2)n(C)n1 (stereo not given)
cytotoxicity at 70.5 h: 8.66%

c1cnnc(N2CCCC(NCc3ccc(-n4cccn4)cc3)C2)c1 (stereo not given)
cytotoxicity at 70.5 h: -4.64%

COCCOc1ccc(NC(=O)N2CCCC2c2cc(C)no2)cn1 (stereo not given)
cytotoxicity at 70.5 h: -7.2%

Cc1nc(CN2CCCC(N(C)Cc3nnsc3Cl)C2)no1 (stereo not given)
cytotoxicity at 70.5 h: -1.91%

OCC1CCCN1c1cc(N2CCc3ccccc3C2)ncn1 (stereo not given)
cytotoxicity at 70.5 h: 31.1%

COCCOc1ccc(NC(=O)N2CCCC2c2ccncc2)cn1 (stereo not given)
cytotoxicity at 70.5 h: -11.8%

Cc1cnn(CC2CCCN2Cc2nc3ccccc3nc2C)c1 (stereo not given)
cytotoxicity at 70.5 h: -7.74%

Cc1cc(C)n(C2CCCN(C(=O)c3cc(C4CC4)on3)C2)n1 (stereo not given)
cytotoxicity at 70.5 h: 0.784%

CC(C)c1nc2n(n1)CC(NCc1ncc(-c3ccccc3)o1)CC2 (stereo not given)
cytotoxicity at 70.5 h: -6.07%

c1ccc(-c2cnc(CNCC3CCCN3c3cccnn3)o2)cc1 (stereo not given)
cytotoxicity at 70.5 h: -5.15%

Cc1nc2ccccc2nc1CN(C)CC1CCCN1c1cccnn1 (stereo not given)
cytotoxicity at 70.5 h: 3.52%

Cc1noc(C)c1CN(C)CC1CCCN1c1cccnn1 (stereo not given)
cytotoxicity at 70.5 h: -7.19%

Cn1cnnc1C1CCCN(C(=O)NCCNc2ccccn2)C1 (stereo not given)
cytotoxicity at 70.5 h: -15.9%

COc1ccc(C)cc1CSCCn1nc2ccccn2c1=O
cytotoxicity at 70.5 h: -11.5%

CC(=O)Nc1nc(C(=O)Nc2ccc(F)cc2)cs1
cytotoxicity at 70.5 h: -4.84%

CCN(Cc1ccc2c(c1)OCCO2)C(=O)NCc1cc[nH]n1
cytotoxicity at 70.5 h: -20.9%

CN(Cc1ccsc1)C(=O)CS(=O)(=O)Cc1ccc(Cl)c(Cl)c1
cytotoxicity at 70.5 h: -9.28%

CC(O)CN(CC(=O)NC(=O)NCC(F)(F)F)c1ccccc1 (stereo not given)
cytotoxicity at 70.5 h: -11.1%

NS(=O)(=O)Cc1ccc(CNC(=O)NCC2CCOC2)cc1 (stereo not given)
cytotoxicity at 70.5 h: -15.3%

COc1ccccc1CC1CCCN(CC(N)=O)C1 (stereo not given)
cytotoxicity at 70.5 h: -2.63%

O=c1n(CCSCc2ccccc2F)nc2ccccn12
cytotoxicity at 70.5 h: -11.3%

Cc1oc(-c2ccco2)nc1CC(=O)N1CCN(CC(C)(C)O)CC1
cytotoxicity at 70.5 h: -17.8%

O=C(Nc1cc(F)ccc1OCC1CCCO1)c1ccc(O)nc1 (stereo not given)
cytotoxicity at 70.5 h: -6.69%

Cc1nnc(N2CCC(CS(N)(=O)=O)CC2)c(C#N)c1C
cytotoxicity at 70.5 h: -9.82%

CCn1nc(C)cc1C(=O)Nc1cc(F)ccc1OCC1CCCO1 (stereo not given)
cytotoxicity at 70.5 h: -16.3%

CN(Cc1nc(N)c2ccccc2n1)CC1CCCN1c1cccnn1 (stereo not given)
cytotoxicity at 70.5 h: -16.6%

Cn1ccc(C(=O)N2CCCC(n3cncn3)C2)cc1=O (stereo not given)
cytotoxicity at 70.5 h: -10.3%

O=C(c1cc[nH]n1)N1CCC(Nc2cccnn2)CC1
cytotoxicity at 70.5 h: 14.8%

CC(C(=O)NCc1ccc(-n2cncn2)nc1)n1ccnc1 (stereo not given)
cytotoxicity at 70.5 h: -18%

CCc1nnc(CN2CCN(C(=O)c3cc4ccccc4[nH]3)CC2)o1
cytotoxicity at 70.5 h: -3.19%

Cc1oc(-c2ccco2)nc1CC(=O)N1CCC(C(O)C(F)(F)F)CC1 (stereo not given)
cytotoxicity at 70.5 h: -18.3%

CC(C)c1nn(C)c(Cl)c1CNCC(O)c1cccc(F)c1 (stereo not given)
cytotoxicity at 70.5 h: -10.3%

Cn1ncc2c1CCCC2NCc1cc(Br)cs1 (stereo not given)
cytotoxicity at 70.5 h: -0.587%
